Measured values as given in US4975451A, “Insecticidal cyclopropyl di(aryl) 2-butenes” (FMC Corporation, priority 1989, dated 1990).
In brackets after ≈: the same amount, converted by molar mass.

How the values were obtained:
southern corn rootworm = assay: Soil evaluation, southern corn rootworm; format: in vivo, Diabrotica undecimounctata Howardi; conditions: rate 7.5 ppm, 48 hours, read-out: Initial % Kill SCR
Experimental: Soil evaluation of insecticidal activity of test compounds were conducted against the southern corn rootworm (Diabrotica undecimounctata Howardi). A 0.25 ml aliquot of a stock solution containing 64 mg of the candidate insecticide in 4.0 ml of acetone was pipetted into 41 mL of distilled water containing 0.1% octylphenoxypolyethoxyethanol emulsifier. […] In all cases, four mL of each test solution was pipetted into a 4 ounce specimen cup containing two two-day-old corn sprouts completely covered by 26 grams of dry sandy soil. The treated soil in each cup was allowed to stand uncovered in a hood to evaporate the acetone. Each cup was capped and the soil in each cup was mixed thoroughly. The cap of each cup was removed, and ten second instar southern corn rootworm larvae were added to each cup. The cups were each covered with lids perforated with two small holes to allow for ventilation. The cups were then held under fluorescent light (12 hours light: 12 hours dark) at 24°-26° C. for 48 hours. An untreated check and an appropriate standard were included in each test. Two replicates were run for each chemical treatment. The unaffected larvae from the soil of each cup were extracted by placing the contents of each cup into a modified Berlese polyethylene funnel fitted with an 18-mesh screen. The funnels were placed over containers of an aqueous detergent solution. Incandescent lights (100 watts) were placed 36 cm above the soil in each funnel. The heat from these lights slowly dried the soil causing larvae that had not been affected by the candidate insecticide to emerge from the soil and drop out of the funnel into the detergent solution. The percent mortality was determined by comparing the number of live larvae in the detergent solution with the total number of larvae infested during the initiation of the test. Percent mortality was determined in this manner for each concentration.

twospotted spider mite = assay: Foliar acaricidal test, twospotted spider mite (susceptible); format: in vivo; conditions: Tetranychus urticae, 48 hours, read-out: % Kill TSM-S; for mortality at 100 ppm: rate 100 ppm; for mortality at 500 ppm: rate 500 ppm
Experimental: (§1) The insecticidal activity of the pyrethroid-like compounds of this invention as identified in Table 1, appended, was evaluated as follows:
(§2) Compounds within the scope of this invention were tested by foliar application at various concentrations in aqueous solutions containing 10% (volume/volume) acetone and water. Insect species utilized included the cabbage looper (Trichoplusia ni), Mexican bean beetle (Epilachna varivestis), pea aphid (Acryrthosiphon pisum), tobacco budworm (Heliothis virescens) and twospotted spider mite (Tetranychus urticae).
Acaricidal tests were performed using the following procedure: Leaves infested with adult twospotted spider mites (Tetranvchus urticae) were removed from culture plants and cut into segments containing 50-75 female mites. Each segment was placed on the upper leaf surface of a whole pinto bean plant. After the mites had migrated to the under surfaces of the leaves, the leaf segments used to infest were removed, and each plant was sprayed with test chemicals as described above. After the plants had dried, the entire plant and pot were placed in metal trays in a hood, a supply of water in the tray keeping the plants turgid. After 48 hours the living and dead mites were counted, and percent mortality was calculated.

Fish toxicity, tilapia = format: in vivo; conditions: water; Tilapia (Oreochromis niloticus), 48 hour test
Experimental: Compounds of the present invention were tested for toxicity to fish using one inch long tilapia (Oreochromis niloticus). Prior to the test the tilapia were acclimated for one week in an aquarium, during which time they were fed with a ration of rice bran and pelletized hog feed. The water in the aquarium was changed daily with distilled water.
Stock solutions of each of the test chemicals were prepared by dissolving the weighed technical material in acetone and adding distilled water to provide a 1% acetone in water solution.
The test solutions were prepared by diluting the appropriate amount of a stock solution to 25 mL with distilled water. The appropriate amount of stock solution was determined for the concentration required in a final volume of 800 mL of test solution. The test chemicals were tested in triplicate at concentrations ranging from 0.005 ppm to 20 ppm. The actual concentrations of the test chemicals needed to determine LC50 values were determined by fish toxicity-range of application studies prior to the LC50 test. Each 25 mL test chemical solution was added to a one liter aquarium containing 500 mL of 0.01% (v/v) ethylene glycol in water. The aquariums were shaken gently and then allowed to stand for one hour. After this time the tilapia were added by first placing five fish in a container with 275 mL of distilled water and then pouring the water and fish into each aquarium. The dead and live fish were counted after 24 and 48 hours. Any fish observed to be dead was removed from its aquarium immediately. Upon completion of the 48 hour test period, the lethal concentration of each compound tested that would give 50% mortality to the tilapia was determined.

pea aphid = assay: Foliar evaluation, pea aphid; format: in vivo, Acryrthosiphon pisum; conditions: Acyrthosiphon pisum, 48 hours, read-out: % Kill PA; for mortality at 100 ppm: rate 100 ppm; for mortality at 500 ppm: rate 500 ppm
Experimental: as §1, §2
(§3) For all insects except the pea aphid, pinto beans (Phaseolus vulgaris) plants were treated with the test solutions. The test solutions were applied with a sprayer to the upper and lower surfaces of the plant leaves to runoff. The plants were then allowed to dry and were severed at the base of the stem before being placed in cups. Ten second instar individuals of the appropriate insect species, except the tobacco budworm, were placed in each cup and the cup covered. Tests with the tobacco budworm used four replicates with each replicate containing five second instar tobacco budworms. In all tests, mortality was read 48 hours later.
In the case of the pea aphid, fava bean (Vicia faba) was substituted for pinto bean. The treated, potted plants were placed in cups infested with ten individuals and covered. Mortality was read 48 hours later.

tobacco budworm = assay: Foliar evaluation, tobacco budworm; format: in vivo; conditions: Heliothis virescens, 48 hours, read-out: % Kill TBW; for mortality at 100 ppm: rate 100 ppm; for mortality at 500 ppm: rate 500 ppm
Experimental: as §1, §2, §3

Mexican bean beetle = assay: Foliar evaluation, Mexican bean beetle; format: in vivo; conditions: Epilachna varivestis, 48 hours, read-out: % Kill MBB; for mortality at 100 ppm: rate 100 ppm
Experimental: as §1, §2, §3

cabbage looper = assay: Foliar evaluation, cabbage looper; format: in vivo; conditions: Trichoplusia ni, 48 hours, read-out: % Kill CL; for mortality at 100 ppm: rate 100 ppm; for mortality at 500 ppm: rate 500 ppm
Experimental: as §1, §2, §3

Row | SMILES | mortality at 7.5 ppm (southern corn rootworm) | mortality at 100 ppm (twospotted spider mite) | LC50 at 48 h (Fish toxicity, tilapia) | mortality at 100 ppm (pea aphid) | mortality at 100 ppm (tobacco budworm) | mortality at 100 ppm (Mexican bean beetle) | mortality at 100 ppm (cabbage looper) | further results
1 | FC(F)(F)Oc1ccc(C(C=CCc2cccc(Oc3ccccc3)c2)C2CC2)cc1 (stereo not shown) [Compound 5] | 50% | 100% | 1 to 3 µg/mL (≈ 2.36 to 7.07 µM) | 100% | 80% | 100% | 85% | –
2 | Fc1ccc(CC=CC(c2ccc(OC(F)(F)F)cc2)C2CC2)cc1Oc1ccccc1 (stereo not shown) [Compound 6, 1-cyclopropyl-1-(4-trifluoromethoxyphenyl)-4-(4-fluoro-3-phenoxyphenyl)-2-butene] | 70% | 99% | 9 µg/mL (≈ 20.3 µM) | 85% | 100% | 100% | 100% | –
3 | Cc1c(CC=CC(c2ccc(Cl)cc2)C2CC2)cccc1-c1ccccc1 (stereo not shown) [Compound 7] | 50% | – | – | – | – | – | – | mortality at 500 ppm (twospotted spider mite): 7%; mortality at 500 ppm (pea aphid): 60%; mortality at 500 ppm (tobacco budworm): 100%; mortality at 500 ppm (Mexican bean beetle; rate 500 ppm): 100%; mortality at 500 ppm (cabbage looper): 100%
4 | Fc1ccc(CC=CC(c2ccc(Cl)cc2)C2CC2)cc1Oc1ccccc1 (stereo not shown) [Compound 2, 1-cyclopropyl-1-(4-chlorophenyl)-4-(4-fluoro-3-phenoxyphenyl)-2-butene] | 45% | 0% | 7.5 to 10 µg/mL (≈ 19.1 to 25.5 µM) | 80% | 100% | 100% | 100% | –
5 | Clc1ccc(C(C=CCc2cccc(Oc3ccccc3)c2)C2CC2)cc1 (stereo not shown) [Compound 1] | 45% | 2% | 3 to 5 µg/mL (≈ 8 to 13.3 µM) | 75% | 100% | 100% | 100% | –
6 | FC(F)(F)c1ccc(C(C=CCc2cccc(Oc3ccccc3)c2)C2CC2)cc1 (stereo not shown) [Compound 3] | 60% | 90% | 5 to 7.5 µg/mL (≈ 12.2 to 18.4 µM) | 45% | 100% | 100% | 90% | –
7 | Fc1ccc(CC=CC(c2ccc(C(F)(F)F)cc2)C2CC2)cc1Oc1ccccc1 (stereo not shown) [Compound 4] | – | 90% | – | 90% | 100% | 100% | 100% | –
8 | CCOc1ccc(C(C=CCc2cccc(-c3ccccc3)c2C)C2CC2)cc1 (stereo not shown) [Compound 9] | – | – | – | – | – | – | – | mortality at 1000 ppm (twospotted spider mite; rate 1000 ppm): 100%; mortality at 1000 ppm (pea aphid; rate 1000 ppm): 100%; mortality at 1000 ppm (Mexican bean beetle; rate 1000 ppm): 90%; mortality at 1000 ppm (cabbage looper; rate 1000 ppm): 100%
9 | CC1(C)C(C=C(Cl)Cl)C1C(=O)OC(C#N)c1cccc(Oc2ccccc2)c1 (stereo not shown) [cypermethrin, reference compound] | – | – | 0.02 µg/mL (≈ 0.048 µM) | – | – | – | – | –
10 | Cc1c(CC=CC(c2ccc(OCC3CC3)cc2)C2CC2)cccc1-c1ccccc1 (stereo not shown) [Compound 8] | – | – | – | – | – | – | – | mortality at 500 ppm (twospotted spider mite): 0%; mortality at 500 ppm (pea aphid): 5%; mortality at 500 ppm (tobacco budworm): 22%; mortality at 500 ppm (cabbage looper): 100%
